# What was measured:
# p-CHK1 (Ser345) = assay: AlphaLISA SureFire Ultra p-CHK1 (Ser345) cellular assay in HT29 cells; format: cell-based; details: Homo sapiens, HT-29, 16 h at 37° C.
# Outline: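 HT29 cells treated with compounds over a 10-point, 3-fold dilution series for 16 h at 37° C., then lysed; p-CHK1 (Ser345) in lysates measured by AlphaLISA SureFire Ultra (acceptor and donor steps 1 h each at room temperature). IC50 from dose-response curve fits.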
# [1] = biological target: T1, Full-length human Chk1 protein (Homo sapiens, UniProt O14757); assay: Kinase HTRF biochemical assay (HTRF KinEASE), Chk1 enzyme activity; details: full-length human Chk1, ATP 1 mM, 60 minutes at room temperature
# T1 construct: purchased Carna Biosciences, Inc. 02-117
# T1 sequence (O14757 1-476): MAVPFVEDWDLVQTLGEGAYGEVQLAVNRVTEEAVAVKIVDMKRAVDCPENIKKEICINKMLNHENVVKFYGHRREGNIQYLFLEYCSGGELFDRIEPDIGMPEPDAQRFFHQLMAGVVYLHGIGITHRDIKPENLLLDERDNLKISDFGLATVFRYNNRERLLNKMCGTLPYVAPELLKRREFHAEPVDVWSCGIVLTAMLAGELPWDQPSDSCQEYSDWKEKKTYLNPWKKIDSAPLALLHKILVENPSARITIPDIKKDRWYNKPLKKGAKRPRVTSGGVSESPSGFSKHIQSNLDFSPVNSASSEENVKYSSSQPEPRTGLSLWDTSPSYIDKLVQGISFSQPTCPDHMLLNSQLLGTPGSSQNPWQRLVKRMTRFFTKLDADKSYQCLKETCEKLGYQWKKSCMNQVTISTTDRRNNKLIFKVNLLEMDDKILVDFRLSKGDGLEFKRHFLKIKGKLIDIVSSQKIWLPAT
# Outline: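 Full-length human Chk1 (0.012 ng/μL) in buffer with 5 mM MgCl2 and 1 mM DTT, preincubated with compound 10 min at room temperature; reaction with 120 nM biotinylated STK substrate 1 and 1 mM ATP for 60 min at room temperature. HTRF detection via cryptate antibody/streptavidin-XL665; IC50 from 10-point duplicate curves.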
IC50 (p-CHK1 (Ser345)) [µM],IC50 [1] [µM],Compound
> 1,0.1 to 0.5,"COc1ccc(C)c(O[C@@H]2CC[C@H](N)C2)c1-c1cc(Nc2cnc(C#N)cn2)n[nH]1 [Example 4-3, 5-((5-(2-(((1R,3S)-3-aminocyclopentyl)oxy)-6-methoxy-3-methylphenyl)-1 H-pyrazol-3-yl)amino)pyrazine-2-carbonitrile]"
≤ 0.05,≤ 0.01,"N#Cc1cnc(Nc2cc(-c3nc(C4CC4)ccc3O[C@@H]3CC[C@H](N)C3)[nH]n2)cn1 [Example 4-5, 5-((5-(3-(((1R,3S)-3-aminocyclopentyl)oxy)-6-cyclopropylpyridin-2-yl)-1H-pyrazol-3-yl)amino)pyrazine-2-carbonitrile]"
≤ 0.05,≤ 0.01,"Cc1cc(F)c(-c2cc(Nc3cnc(C#N)cn3)n[nH]2)c(O[C@@H]2CC[C@@H](N)C2)c1 [Example 5-1, 5-((5-(2-(((1R,3R)-3-aminocyclopentyl)oxy)-6-fluoro-4-methylphenyl)-1H-pyrazol-3-yl)amino)pyrazine-2-carbonitrile]"
0.1 to 0.5,0.01 to 0.1,"Cc1cc(F)c(-c2cc(Nc3cnc(C#N)cn3)n[nH]2)c(O[C@@H]2CC[C@H](N)C2)c1 [Example 5-2, 5-((5-(2-(((1R,3S)-3-aminocyclopentyl)oxy)-6-fluoro-4-methylphenyl)-1H-pyrazol-3-yl)amino)pyrazine-2-carbonitrile]"
≤ 0.05,≤ 0.01,"CN[C@@H]1CC[C@@H](Oc2cc(C)cc(F)c2-c2cc(Nc3cnc(C#N)cn3)n[nH]2)C1 [Example 5-3, 5-((5-(2-fluoro-4-methyl-6-(((1R,3R)-3-(methylamino)cyclopentyl)oxy)phenyl)-1H-pyrazol-3-yl)amino)pyrazine-2-carbonitrile]"
> 1,0.1 to 0.5,"CN(C)[C@@H]1CC[C@@H](Oc2cccc(F)c2-c2cc(Nc3cnc(C#N)cn3)n[nH]2)C1 [Example 5-4, 5-((5-(2-(((1R,3R)-3-(dimethylamino)cyclopentyl)oxy)-6-fluorophenyl)-1H-pyrazol-3-yl)amino)pyrazine-2-carbonitrile]"

# Reference: patent US11707462B2, “Checkpoint kinase 1 (CHK1) inhibitors and uses thereof” (Boundless Bio, Inc., priority 2021, dated 2023)
